Assay results published in ChEMBL document CHEMBL4680292, “Neothalfine, a potent natural anti-tumor agent against metastatic colorectal cancer and its primary mechanism” (Bioorg Med Chem, 2021).
Blank lines part the entries; values can stand above or below the molecule they belong to. Active and inactive are the calls of the source. No cut-off for these calls is given here.

What was measured:
PC-3 [1] = test: Cytotoxicity against human PC-3 cells assessed as reduction in cell growth at 15 uM measured after 48 hrs; type: functional, cell-based
SW-620 [2] = test: Induction of cell cycle arrest in human SW-620 cells assessed as increase in number of cells at G2/M phase at 7 nM measured after 72 hrs by PI staining using flow cytometry (reference value: 27.08%); type: functional
SMMC-7721 [3] = test: Cytotoxicity against human SMMC-7721 cells assessed as reduction in cell growth at 15 uM measured after 48 hrs; type: functional, cell-based
NCI-H1299 [4] = test: Anticancer activity against human NCI-H1299 cells assessed as inhibition of cell proliferation measured after 72 hrs by MTT assay; type: functional, cell-based; details: NCI-H1299, 72 h
T98G [5] = test: Cytotoxicity against human T98G cells assessed as reduction in cell growth at 15 uM measured after 48 hrs; type: functional, cell-based
T84 [6] = test: Anticancer activity against human T84 cells assessed as inhibition of cell proliferation measured after 72 hrs by MTT assay; type: functional, cell-based; details: T84, 72 h
SW-620 [7] = test: Induction apoptosis in human SW-620 cells assessed as increase in live cells at 15 nM measured after 72 hrs by Annexin VFITC /PI staining with flow cytometry (reference value: 92.6%); type: functional
SW-620 [8] = test: Induction apoptosis in human SW-620 cells assessed as increase in late apoptotic cells at 7 nM measured after 72 hrs by Annexin VFITC /PI staining with flow cytometry (reference value: 3.18%); type: functional
HCT-116 [9] = test: Cytotoxicity against human HCT-116 cells assessed as reduction in cell growth at 15 uM measured after 48 hrs; type: functional, cell-based
SW-620 [10] = test: Induction apoptosis in human SW-620 cells assessed as increase in early apoptotic cells at 7 nM measured after 72 hrs by Annexin VFITC /PI staining with flow cytometry (reference value: 4.08%); type: functional
SW-620 [11] = test: Cytotoxicity against human SW-620 cells assessed as reduction in cell growth at 15 uM measured after 48 hrs; type: functional, cell-based
PC-3 [12] = test: Anticancer activity against human PC-3 cells assessed as inhibition of cell proliferation measured after 72 hrs by MTT assay; type: functional, cell-based; details: PC-3, 72 h
MDA-MB-231 [13] = test: Anticancer activity against human MDA-MB-231 cells assessed as inhibition of cell proliferation measured after 72 hrs by MTT assay; type: functional, cell-based; details: MDA-MB-231, 72 h
SW-620 [14] = test: Induction of apoptosis in human SW-620 cells assessed as increase in cleaved caspase 3/7 level at 3.5 nM relative to control; type: functional
NCI-H1299 [15] = test: Cytotoxicity against human NCI-H1299 cells assessed as reduction in cell growth at 15 uM measured after 48 hrs; type: functional, cell-based
SW-620 [16] = test: Induction of apoptosis in human SW-620 cells assessed as increase in cleaved caspase 3/7 level at 11.5 nM relative to control; type: functional
T98G [17] = test: Anticancer activity against human T98G cells assessed as inhibition of cell proliferation measured after 72 hrs by MTT assay; type: functional, cell-based
HCT-116 [18] = test: Anticancer activity against human HCT-116 cells assessed as inhibition of cell proliferation measured after 72 hrs by MTT assay; type: functional, cell-based; details: HCT-116, 72 h
MHCC97H [19] = test: Cytotoxicity against human MHCC97H cells assessed as reduction in cell growth at 15 uM measured after 48 hrs; type: functional, cell-based
MDA-MB-231 [20] = test: Cytotoxicity against human MDA-MB-231 cells assessed as reduction in cell growth at 15 uM measured after 48 hrs; type: functional, cell-based
SW-620 [21] = test: Induction apoptosis in human SW-620 cells assessed as increase in late apoptotic cells at 15 nM measured after 72 hrs by Annexin VFITC /PI staining with flow cytometry (reference value: 3.18%); type: functional
SW-620 [22] = test: Inhibition of colony formation in human SW-620 cells assessed as damaged tumor spheres at 3.5 to 30 nM by crystal violet staining based microscopic analysis; type: functional, cell-based; details: dose 3.5-30 nM
SW-620 [23] = test: Induction of apoptosis in human SW-620 cells assessed as increase in cleaved caspase 3/7 level at 15 nM relative to control; type: functional
SK-OV-3 [24] = test: Cytotoxicity against human SK-OV-3 cells assessed as reduction in cell growth at 15 uM measured after 48 hrs; type: functional, cell-based
SW-620 [25] = test: Induction apoptosis in human SW-620 cells assessed as increase in necrotic cells apoptotic cells at 7 nM measured after 72 hrs by Annexin VFITC /PI staining with flow cytometry (reference value: 0.24%); type: functional
SW-620 [26] = test: Induction of cell cycle arrest in human SW-620 cells assessed as increase in number of cells at G0/G1 phase at 7 nM measured after 72 hrs by PI staining using flow cytometry (reference value: 60.05%); type: functional
SW-620 [27] = test: Induction apoptosis in human SW-620 cells assessed as increase in live cells at 7 nM measured after 72 hrs by Annexin VFITC /PI staining with flow cytometry (reference value: 92.6%); type: functional
SW-620 [28] = test: Induction of mitochondrial membrane potential loss in human SW-620 cells at 3.5 nM by JC-1 staining based fluorescence microscopic analysis; type: functional, cell-based
SK-OV-3 [29] = test: Anticancer activity against human SK-OV-3 cells assessed as inhibition of cell proliferation measured after 72 hrs by MTT assay; type: functional, cell-based; details: SK-OV-3, 72 h
SMMC-7721 [30] = test: Anticancer activity against human SMMC-7721 cells assessed as inhibition of cell proliferation measured after 72 hrs by MTT assay; type: functional, cell-based; details: SMMC-7721, 72 h
SW-620 [31] = test: Induction apoptosis in human SW-620 cells assessed as increase in early apoptotic cells at 15 nM measured after 72 hrs by Annexin VFITC /PI staining with flow cytometry (reference value: 4.08%); type: functional
SW-620 [32] = test: Anticancer activity against human SW-620 cells assessed as inhibition of cell proliferation measured after 72 hrs by MTT assay; type: functional, cell-based; details: SW-620, 72 h
T84 [33] = test: Cytotoxicity against human T84 cells reduction in cell growth at 15 uM measured after 48 hrs; type: functional, cell-based
SW-620 [34] = test: Induction of apoptosis in human SW-620 cells assessed as increase in cleaved caspase 3/7 level at 7 nM relative to control; type: functional
MHCC97H [35] = test: Anticancer activity against human MHCC97H cells assessed as inhibition of cell proliferation measured after 72 hrs by MTT assay; type: functional, cell-based
SW-620 [36] = test: Induction apoptosis in human SW-620 cells assessed as increase in necrotic cells apoptotic cells at 15 nM measured after 72 hrs by Annexin VFITC /PI staining with flow cytometry (reference value: 0.24%); type: functional
SW-620 [37] = test: Induction apoptosis in human SW-620 cells assessed as increase in early apoptotic cells at 12 uM measured after 72 hrs by Annexin VFITC /PI staining with flow cytometry (reference value: 4.08%); type: functional
SW-620 [38] = test: Induction apoptosis in human SW-620 cells assessed as increase in live cells at 6 uM measured after 72 hrs by Annexin VFITC /PI staining with flow cytometry (reference value: 92.6%); type: functional
SW-620 [39] = test: Induction apoptosis in human SW-620 cells assessed as increase in necrotic cells apoptotic cells at 12 uM measured after 72 hrs by Annexin VFITC /PI staining with flow cytometry (reference value: 0.24%); type: functional
SW-620 [40] = test: Induction apoptosis in human SW-620 cells assessed as increase in necrotic cells apoptotic cells at 6 uM measured after 72 hrs by Annexin VFITC /PI staining with flow cytometry (reference value: 0.24%); type: functional
SW-620 [41] = test: Induction of cell cycle arrest in human SW-620 cells assessed as increase in number of cells at G0/G1 phase at 6 uM measured after 72 hrs by PI staining using flow cytometry (reference value: 60.05%); type: functional
SW-620 [42] = test: Induction of cell cycle arrest in human SW-620 cells assessed as increase in number of cells at G2/M phase at 6 uM measured after 72 hrs by PI staining using flow cytometry (reference value: 27.08%); type: functional
SW-620 [43] = test: Inhibition of colony formation in human SW-620 cells assessed as effect on tumor sphere formation at 30 nM by crystal violet staining based microscopic analysis; type: functional, cell-based
SW-620 [44] = test: Inhibition of colony formation in human SW-620 cells assessed as damaged tumor sphere at 3 to 6 uM by crystal violet staining based microscopic analysis; type: functional, cell-based; details: dose 3-6 µM
SW-620 [45] = test: Induction apoptosis in human SW-620 cells assessed as increase in early apoptotic cells at 6 uM measured after 72 hrs by Annexin VFITC /PI staining with flow cytometry (reference value: 4.08%); type: functional
SW-620 [46] = test: Induction apoptosis in human SW-620 cells assessed as increase in late apoptotic cells at 6 uM measured after 72 hrs by Annexin VFITC /PI staining with flow cytometry (reference value: 3.18%); type: functional
SW-620 [47] = test: Induction apoptosis in human SW-620 cells assessed as increase in late apoptotic cells at 12 uM measured after 72 hrs by Annexin VFITC /PI staining with flow cytometry (reference value: 3.18%); type: functional
SW-620 [48] = test: Induction apoptosis in human SW-620 cells assessed as increase in live cells at 12 uM measured after 72 hrs by Annexin VFITC /PI staining with flow cytometry (reference value: 92.6%); type: functional

IC50 (NCI-H1299 [4]): 132 nM
IC50 (PC-3 [12]): 661 nM
IC50 (MDA-MB-231 [13]): 467 nM
IC50 (HCT-116 [18]): 7.2 nM
IC50 (SK-OV-3 [29]): 180 nM
IC50 (SMMC-7721 [30]): 73 nM
IC50 (SW-620 [32]): 5.9 nM
SMILES: COc1ccc2cc1Oc1ccc(cc1)Cc1nccc3c4c(c(OC)c(c13)Oc1c3c(cc(OC)c1OC)[C@H](C2)N(C)CC3)OCO4
Activity (PC-3 [1]): Active
Activity (SW-620 [2]): 41%
Activity (SMMC-7721 [3]): Active
Activity (T98G [5]): Active
IC50 (T84 [6]): 8.2 nM
Activity (SW-620 [7]): 69.82%
Activity (SW-620 [8]): 7.36%
Activity (HCT-116 [9]): Active
Activity (SW-620 [10]): 8.7%
Activity (SW-620 [11]): Active
fold change (FC) (SW-620 [14]): 3.3
Activity (NCI-H1299 [15]): Active
fold change (FC) (SW-620 [16]): 9.3
IC50 (T98G [17]): 382 nM
Activity (MHCC97H [19]): Active
Activity (MDA-MB-231 [20]): Active
Activity (SW-620 [21]): 4.83%
inhibition (SW-620 [22]): Active
fold change (FC) (SW-620 [23]): 12.9
Activity (SK-OV-3 [24]): Active
Activity (SW-620 [25]): 1.2%
Activity (SW-620 [26]): 46.37%
Activity (SW-620 [27]): 82.74%
Activity (SW-620 [28]): Active
Activity (SW-620 [31]): 26.2%
Activity (T84 [33]): Active
fold change (FC) (SW-620 [34]): 8.2
IC50 (MHCC97H [35]): 145 nM
Activity (SW-620 [36]): 0.15%

IC50 (HCT-116 [18]): 4 nM
IC50 (SW-620 [32]): 4.7 nM
SMILES: CC(=O)O[C@@]12CO[C@@H]1C[C@H](O)[C@@]1(C)C(=O)[C@H](O)C3=C(C)[C@@H](OC(=O)[C@H](O)[C@@H](NC(=O)OC(C)(C)C)c4ccccc4)C[C@@](O)([C@@H](OC(=O)c4ccccc4)[C@H]21)C3(C)C [DOCETAXEL ANHYDROUS]
IC50 (T84 [6]): 2.7 nM

IC50 (HCT-116 [18]): 4.4 nM
IC50 (SW-620 [32]): 5.1 nM
SMILES: CCc1c2c(nc3ccc(OC(=O)N4CCC(N5CCCCC5)CC4)cc13)-c1cc3c(c(=O)n1C2)COC(=O)[C@]3(O)CC [IRINOTECAN]
Activity (SW-620 [37]): 13.18%
Activity (SW-620 [38]): 87.7%
Activity (SW-620 [39]): 0.34%
IC50 (T84 [6]): 6.9 nM
Activity (SW-620 [40]): 0.34%
Activity (SW-620 [41]): 33.53%
Activity (SW-620 [42]): 55.12%
inhibition (SW-620 [43]): inactive
inhibition (SW-620 [44]): Active
Activity (SW-620 [45]): 7.84%
Activity (SW-620 [46]): 4.12%
Activity (SW-620 [47]): 5.3%
Activity (SW-620 [48]): 81.18%
